Measured values from patent publication US11420958B2, “Aryl and heteroaryl substituted indole compounds” (BRISTOL-MYERS SQUIBB COMPANY, priority 2017, dated 2022).

Columns and labels:
Format in all cases: cell-based
human TLR7 = human TLR7 (Homo sapiens (Human), UniProt Q9NYK1); experiment: TLR7 inhibition reporter assay (HEK-Blue, SEAP); conditions: HEK-Blue cells overexpressing human TLR7, gardiquimod 7.5 μM stimulation
Method in brief: (§1)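 SEAP read-out via detection medium after 22 h at 37 °C, 5% CO2; percent inhibition relative to agonist-plus-DMSO and known-inhibitor wells. Agonists: TLR7 gardiquimod 7.5 μM, TLR8 R848 15.9 μM, TLR9 ODN2006 5 nM (final). Compound range 0.05 nM–50 μM, 30 min pre-treatment.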

human TLR8 = human TLR8 (Homo sapiens (Human), UniProt Q9NR97); experiment: TLR8 inhibition reporter assay (HEK-Blue, SEAP); conditions: HEK-Blue cells overexpressing human TLR8, R848 15.9 μM stimulation
Method in brief: as §1

human TLR9 = human TLR9 (Homo sapiens (Human), UniProt Q9NR96); experiment: TLR9 inhibition reporter assay (HEK-Blue, SEAP); conditions: HEK-Blue cells overexpressing human TLR9, ODN2006 5 nM stimulation
Method in brief: as §1

Chain of human TLR8 (Q9NR97 27-1041): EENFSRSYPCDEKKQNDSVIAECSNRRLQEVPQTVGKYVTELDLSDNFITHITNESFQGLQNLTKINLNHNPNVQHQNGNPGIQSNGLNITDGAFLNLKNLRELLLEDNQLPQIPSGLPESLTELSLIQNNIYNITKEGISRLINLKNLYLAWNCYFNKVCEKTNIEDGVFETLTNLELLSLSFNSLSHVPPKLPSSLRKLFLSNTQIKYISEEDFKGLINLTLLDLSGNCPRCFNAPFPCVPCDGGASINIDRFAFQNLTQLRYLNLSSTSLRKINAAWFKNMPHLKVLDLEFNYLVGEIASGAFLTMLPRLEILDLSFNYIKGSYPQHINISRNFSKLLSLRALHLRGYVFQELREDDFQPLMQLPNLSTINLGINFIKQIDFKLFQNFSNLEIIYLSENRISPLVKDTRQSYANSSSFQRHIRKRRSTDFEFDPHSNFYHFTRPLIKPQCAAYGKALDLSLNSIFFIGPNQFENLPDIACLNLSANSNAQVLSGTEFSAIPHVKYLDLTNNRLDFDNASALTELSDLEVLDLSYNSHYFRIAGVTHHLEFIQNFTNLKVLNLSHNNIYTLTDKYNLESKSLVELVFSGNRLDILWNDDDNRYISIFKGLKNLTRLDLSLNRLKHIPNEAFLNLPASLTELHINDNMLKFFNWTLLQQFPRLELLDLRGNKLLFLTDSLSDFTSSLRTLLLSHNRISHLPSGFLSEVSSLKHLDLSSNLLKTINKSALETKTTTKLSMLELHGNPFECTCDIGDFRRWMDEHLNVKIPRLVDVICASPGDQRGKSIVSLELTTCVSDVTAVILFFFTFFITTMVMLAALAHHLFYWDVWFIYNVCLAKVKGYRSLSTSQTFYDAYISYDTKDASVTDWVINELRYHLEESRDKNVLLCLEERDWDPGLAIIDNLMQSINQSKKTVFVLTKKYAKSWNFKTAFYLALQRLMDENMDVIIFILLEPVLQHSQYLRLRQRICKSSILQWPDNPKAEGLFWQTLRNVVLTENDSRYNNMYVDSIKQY
Chain of human TLR7 (Q9NYK1 27-1049): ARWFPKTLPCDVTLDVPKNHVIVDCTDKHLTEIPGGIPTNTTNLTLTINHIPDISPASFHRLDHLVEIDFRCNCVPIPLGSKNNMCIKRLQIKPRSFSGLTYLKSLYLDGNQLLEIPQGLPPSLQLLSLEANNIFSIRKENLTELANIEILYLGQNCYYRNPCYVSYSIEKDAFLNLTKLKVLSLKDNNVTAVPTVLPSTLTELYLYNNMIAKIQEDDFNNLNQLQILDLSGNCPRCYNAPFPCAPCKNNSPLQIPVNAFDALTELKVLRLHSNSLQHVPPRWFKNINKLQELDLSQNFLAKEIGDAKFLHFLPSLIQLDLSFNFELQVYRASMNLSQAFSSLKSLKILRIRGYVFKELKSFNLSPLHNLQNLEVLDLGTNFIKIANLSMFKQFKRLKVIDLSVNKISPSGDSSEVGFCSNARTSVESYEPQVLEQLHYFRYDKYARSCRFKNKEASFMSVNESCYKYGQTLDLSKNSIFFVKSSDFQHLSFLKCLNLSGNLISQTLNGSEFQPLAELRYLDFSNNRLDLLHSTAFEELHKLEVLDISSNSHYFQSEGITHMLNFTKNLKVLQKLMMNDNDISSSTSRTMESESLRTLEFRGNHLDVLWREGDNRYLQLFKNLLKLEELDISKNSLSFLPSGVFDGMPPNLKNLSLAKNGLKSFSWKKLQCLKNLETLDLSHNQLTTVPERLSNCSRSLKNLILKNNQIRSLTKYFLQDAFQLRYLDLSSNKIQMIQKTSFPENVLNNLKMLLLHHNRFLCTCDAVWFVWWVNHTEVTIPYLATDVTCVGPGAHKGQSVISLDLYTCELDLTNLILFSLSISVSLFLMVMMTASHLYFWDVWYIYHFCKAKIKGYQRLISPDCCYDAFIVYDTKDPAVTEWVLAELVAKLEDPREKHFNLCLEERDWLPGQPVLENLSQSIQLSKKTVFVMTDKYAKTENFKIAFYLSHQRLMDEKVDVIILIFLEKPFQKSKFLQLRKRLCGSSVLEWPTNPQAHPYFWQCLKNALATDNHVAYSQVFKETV
Chain of human TLR9 (Q9NR96 26-1032): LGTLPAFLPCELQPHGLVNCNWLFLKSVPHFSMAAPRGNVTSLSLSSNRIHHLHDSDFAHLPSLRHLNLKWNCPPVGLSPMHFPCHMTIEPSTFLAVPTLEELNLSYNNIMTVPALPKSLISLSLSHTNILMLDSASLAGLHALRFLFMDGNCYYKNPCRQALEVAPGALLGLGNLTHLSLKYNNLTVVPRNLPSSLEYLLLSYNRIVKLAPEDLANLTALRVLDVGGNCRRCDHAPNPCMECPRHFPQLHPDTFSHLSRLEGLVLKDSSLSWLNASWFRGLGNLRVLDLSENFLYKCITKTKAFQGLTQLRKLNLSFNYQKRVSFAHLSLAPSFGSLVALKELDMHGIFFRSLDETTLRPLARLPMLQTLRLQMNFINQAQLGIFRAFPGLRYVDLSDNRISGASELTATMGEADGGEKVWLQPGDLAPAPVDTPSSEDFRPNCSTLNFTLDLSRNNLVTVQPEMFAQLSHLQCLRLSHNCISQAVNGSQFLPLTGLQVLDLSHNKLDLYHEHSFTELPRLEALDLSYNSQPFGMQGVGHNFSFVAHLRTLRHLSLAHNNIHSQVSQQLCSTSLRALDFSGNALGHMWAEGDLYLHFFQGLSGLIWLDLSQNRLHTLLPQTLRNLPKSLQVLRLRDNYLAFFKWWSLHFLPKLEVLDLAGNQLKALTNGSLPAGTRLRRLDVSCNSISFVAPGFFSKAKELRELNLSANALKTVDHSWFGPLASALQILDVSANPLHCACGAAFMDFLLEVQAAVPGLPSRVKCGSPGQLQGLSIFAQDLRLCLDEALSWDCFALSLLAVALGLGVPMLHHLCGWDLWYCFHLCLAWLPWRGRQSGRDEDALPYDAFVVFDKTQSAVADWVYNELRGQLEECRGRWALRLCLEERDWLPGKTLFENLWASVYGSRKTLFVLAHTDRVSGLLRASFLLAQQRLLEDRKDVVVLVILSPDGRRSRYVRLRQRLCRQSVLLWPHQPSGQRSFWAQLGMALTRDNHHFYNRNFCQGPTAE

Structure (SMILES) | IC50 (human TLR7) [nM] | IC50 (human TLR8) [nM] | IC50 (human TLR9) [nM]
CNCC(=O)N1CCc2cc(-c3ccc4[nH]c(-c5cc(C)nc(C)c5)c(C(C)C)c4c3)sc2C1 [Example 331, 1-(2-(2-(2,6-dimethylpyridin-4-yl)-3-isopropyl-1H-indol-5-yl)-4,7-dihydrothieno[2,3-c]pyridin-6(5H)-yl)-2-(methylamino)ethan-1-one] | 5.2 | 4.9 | 945
Cc1cn2cc(-c3[nH]c4ccc(-c5ccc(N6CCN(C)CC6)nc5)cc4c3C(C)C)ccc2n1 [Example 333, 6-(3-isopropyl-5-(6-(4-methylpiperazin-1-yl)pyridin-3-yl)-1H-indol-2-yl)-2-methylimidazo[1,2-a]pyridine] | 14 | 91 | 114
Cc1cc(-c2[nH]c3ccc(-c4ccc(N5CC(C)OC(C)C5)nc4)cc3c2C(C)C)cc(C)n1 (stereo not drawn) [Example 335, 4-(5-(2-(2,6-dimethylpyridin-4-yl)-3-isopropyl-1H-indol-5-yl)pyridin-2-yl)-2,6-dimethylmorpholine] | 166 | 106 | 38100
Cc1cc(-c2[nH]c3ccc(-c4ccc(N5CCC(N(C)C)CC5)nc4)cc3c2C(C)C)cc(C)n1 [Example 337, 1-(5-(2-(2,6-dimethylpyridin-4-yl)-3-isopropyl-1H-indol-5-yl)pyridin-2-yl)-N,N-dimethylpiperidin-4-amine] | 6.7 | 4.9 | 220
Cc1cc(-c2[nH]c3ccc(-c4ccc(N5CCC5)nc4)cc3c2C(C)C)cc(C)n1 [Example 338, 5-(6-(azetidin-1-yl)pyridin-3-yl)-2-(2,6-dimethylpyridin-4-yl)-3-isopropyl-1H-indole] | 18 | 31 | 46500
Cc1cc(-c2[nH]c3ccc(-c4ccc(N5CCN(CCO)CC5)nc4)cc3c2C(C)C)cc(C)n1 [Example 339, 2-(4-(5-(2-(2,6-dimethylpyridin-4-yl)-3-isopropyl-1H-indol-5-yl)pyridin-2-yl)piperazin-1-yl)ethan-1-ol] | 8.3 | 5.4 | 523
Cc1cc(-c2[nH]c3ccc(-c4cc5c(s4)CN(CC(=O)N(C)C)CC5)cc3c2C(C)C)cc(C)n1 [Example 342, 2-(2-(2-(2,6-dimethylpyridin-4-yl)-3-isopropyl-1H-indol-5-yl)-4,7-dihydrothieno[2,3-c]pyridin-6(5H)-yl)-N,N-dimethylacetamide] | 19 | 8.9 | 1330
Cc1cc(-c2[nH]c3ccc(-c4ccnc(C5CCNCC5)c4)cc3c2C(C)C)cc(C)n1 [Example 344, 2-(2,6-dimethylpyridin-4-yl)-3-isopropyl-5-(2-(piperidin-4-yl)pyridin-4-yl)-1H-indole] | 5 | 7.9 | 181
Cc1cc(-c2[nH]c3ccc(-c4ccnc(C5CCN(C(C)C)CC5)c4)cc3c2C(C)C)cc(C)n1 [Example 345, 2-(2,6-dimethylpyridin-4-yl)-3-isopropyl-5-(2-(1-isopropylpiperidin-4-yl)pyridin-4-yl)-1H-indole] | 13 | 8.5 | 183
Cc1cc(-c2[nH]c3ccc(-c4cn5cc(C)nc5cc4F)cc3c2C(C)C)cc(C)n1 [Example 348, 6-(2-(2,6-dimethylpyridin-4-yl)-3-isopropyl-1H-indol-5-yl)-7-fluoro-2-methylimidazo[1,2-a]pyridine] | 3.7 | 20 | 3640
Cc1cc(-c2[nH]c3ccc(-c4csc(N5CCCCC5)n4)cc3c2C(C)C)cc(C)n1 [Example 350, 4-(2-(2,6-dimethylpyridin-4-yl)-3-isopropyl-1H-indol-5-yl)-2-(piperidin-1-yl)thiazole] | 742 | 685 | > 50000
Cc1cc(-c2[nH]c3ccc(-c4cc5c(s4)CN(C(=O)C4CC(=O)N(C)C4)CC5)cc3c2C(C)C)cc(C)n1 (stereo not drawn) [Example 352, 4-(2-(2-(2,6-dimethylpyridin-4-yl)-3-isopropyl-1H-indol-5-yl)-4,5,6,7-tetrahydrothieno[2,3-c]pyridine-6-carbonyl)-1-methylpyrrolidin-2-one] | 143 | 49 | 20400

The remaining molecules from weak to strong by IC50 (human TLR7), led by results:

IC50 (human TLR7) [nM] | IC50 (human TLR8) [nM] | IC50 (human TLR9) [nM] | Structure (SMILES)
158 | 32 | > 50000 | CNc1nnc(-c2ccc3[nH]c(-c4ccnc(C)c4)c(C(C)C)c3c2)o1 [Example 346, 5-(3-isopropyl-2-(2-methylpyridin-4-yl)-1H-indol-5-yl)-N-methyl-1,3,4-oxadiazol-2-amine]
64 | 46 | 32900 | Cc1cc(-c2[nH]c3ccc(-c4cc5c(s4)CN(C(=O)C[C@H](C)O)CC5)cc3c2C(C)C)cc(C)n1 [Example 351, (S)-1-(2-(2-(2,6-dimethylpyridin-4-yl)-3-isopropyl-1H-indol-5-yl)-4,7-dihydrothieno[2,3-c]pyridin-6(5H)-yl)-3-hydroxybutan-1-one]
45 | 214 | 672 | Cc1cn2cc(-c3[nH]c4ccc(-c5ccc(N6CCNCC6)nc5)cc4c3C(C)C)ccc2n1 [Example 334, 6-(3-isopropyl-5-(6-(piperazin-1-yl)pyridin-3-yl)-1H-indol-2-yl)-2-methylimidazo[1,2-a]pyridine]
41 | 15 | 2340 | Cc1cc(-c2[nH]c3ccc(-c4ccc(N5CCCC5)nc4)cc3c2C(C)C)cc(C)n1 [Example 336, 2-(2,6-dimethylpyridin-4-yl)-3-isopropyl-5-(6-(pyrrolidin-1-yl)pyridin-3-yl)-1H-indole]
8.6 | 5.6 | 2120 | Cc1cc(-c2[nH]c3ccc(-c4ccc(N)nn4)cc3c2C(C)C)cc(C)n1 [Example 349, 6-(2-(2,6-dimethylpyridin-4-yl)-3-isopropyl-1H-indol-5-yl)pyridazin-3-amine]
6.6 | 6.9 | 592 | Cc1cc(-c2[nH]c3ccc(-c4cn5cc(C)nc5cc4C)cc3c2C(C)C)cc(C)n1 [Example 347, 6-(2-(2,6-dimethylpyridin-4-yl)-3-isopropyl-1H-indol-5-yl)-2,7-dimethylimidazo[1,2-a]pyridine]
6.4 | 5.9 | 295 | Cc1cc(-c2[nH]c3ccc(-c4cc5c(s4)CN(C(=O)CN(C)C)CC5)cc3c2C(C)C)cc(C)n1 [Example 341, 2-(dimethylamino)-1-(2-(2-(2,6-dimethylpyridin-4-yl)-3-isopropyl-1H-indol-5-yl)-4,7-dihydrothieno[2,3-c]pyridin-6(5H)-yl)ethan-1-one]
4 | 3.6 | 262 | Cc1cc(-c2[nH]c3ccc(-c4nnc(C5CCCN(C(C)C)C5)[nH]4)cc3c2C(C)C)cc(C)n1 (stereo not drawn) [Example 340, 2-(2,6-dimethylpyridin-4-yl)-3-isopropyl-5-(5-(1-isopropylpiperidin-3-yl)-4H-1,2,4-triazol-3-yl)-1H-indole]
3.7 | 1.3 | 146 | Cc1cc(-c2[nH]c3ccc(-c4cc5c(s4)CN(Cc4c[nH]c(C)n4)CC5)cc3c2C(C)C)cc(C)n1 [Example 343, 2-(2-(2,6-dimethylpyridin-4-yl)-3-isopropyl-1H-indol-5-yl)-6-((2-methyl-1H-imidazol-4-yl)methyl)-4,5,6,7-tetrahydrothieno[2,3-c]pyridine]
